Reference: patent US7153851B2, “10-(3-cyclopropylaminomethyl-1-pyrrolidinyl)pyridobenzoxazinecarboxylic acid derivative effective against resistant bacterium” (Kyorin Pharmaceutical Co., Ltd., priority 2002, dated 2006)
≈ marks a conversion by molar mass, not a printed value.

What was measured:
Assay in all cases: In vitro antibacterial activity (MIC), agar dilution method according to NCCLS
Assay type in all cases: cell-based
[1] = test system: S. aureus MR5867 (methicillin-resistant S. aureus); conditions: Muller-Hinton agar medium
Procedure: (§1) The in vitro antibacterial activity (as measured by the minimum inhibitory concentration (MIC)) was determined for each of the compounds of the present invention by the agar dilution method according to NCCLS (National Committee for Clinical Laboratory Standard (1997), Methods for Dilution Antibacterial Susceptibility Tests for Bacteria that grow Aerobically-Forth Edition: Approved Standard m7-A4. NCCLS, Villanova, Pa.), which involved the use of Muller-Hinton agar medium.

[2] = test system: S. aureus MS16401 (quinolone-resistant S. aureus); conditions: Muller-Hinton agar medium
Procedure: as §1

S. aureus Smith = conditions: Muller-Hinton agar medium
Procedure: as §1

S. pneumoniae Type III = conditions: Muller-Hinton agar medium containing 5% defibrinated equine blood
E. faecalis IID682 = test system: E. faecalis IID682; design: unit not given here; conditions: Muller-Hinton agar medium containing 5% defibrinated equine blood

MIC [1]	MIC [2] [µg/mL]	MIC (S. aureus Smith)	MIC (S. pneumoniae Type III)	MIC (E. faecalis IID682)	Structure (SMILES)
0.008	63 (≈ 145 µM)	0.008	0.016	0.063	C[C@H]1CN(c2c(F)cc3c(=O)c(C(=O)O)cn4c3c2OC[C@@H]4CF)C[C@@H]1CNC1CC1 [Example 17, (3R)-10-[(3S,4R)-3-cyclopropylaminomethyl-4-methyl-1-pyrrolidinyl]-9-fluoro-3-fluoromethyl-2,3-dihydro-7-oxo-7H-pyrido[1,2,3-d,e][1,4]benzoxazine-6-carboxylic acid]
0.008	31 (≈ 74.6 µM)	0.008	0.016	0.063	C[C@H]1CN(c2c(F)cc3c(=O)c(C(=O)O)cn4c3c2OC[C@@H]4C)C[C@@H]1CNC1CC1 [Example 11, (3S)-10-[(3S,4R)-3-cyclopropylaminomethyl-4-methyl-1-pyrrolidinyl]-9-fluoro-2,3-dihydro-3-methyl-7-oxo-7H-pyrido[1,2,3-d,e][1,4]benzoxazine-6-carboxylic acid]
0.016	63 (≈ 144 µM)	0.008	0.016	0.063	O=C(O)c1cn2c3c(c(N4C[C@H](CNC5CC5)[C@H](F)C4)c(F)cc3c1=O)OC[C@@H]2CF [Example 20, (3R)-10-[(3S,4S)-3-cyclopropylaminomethyl-4-fluoro-1-pyrrolidinyl]-9-fluoro-3-fluoromethyl-2,3-dihydro-7-oxo-7H-pyrido[1,2,3-d.e][1,4]benzoxazine-6-carboxylic acid]
0.016	31 (≈ 76.5 µM)	0.016	0.016	0.063	C[C@H]1COc2c(N3C[C@H](NC4CC4)[C@@H](F)C3)c(F)cc3c(=O)c(C(=O)O)cn1c23 [Example 21, (3S)-10-[(3S,4S)-3-cyclopropylamino-4-fluoro-1-pyrrolidinyl]-9-fluoro-2,3-dihydro-3-methyl-7-oxo-7H-pyrido[1,2,3-d.e][1,4]benzoxazine-6-carboxylic acid]
0.016	63 (≈ 152 µM)	0.016	0.031	0.125	C[C@@H]1CN(c2c(F)cc3c(=O)c(C(=O)O)cn4c3c2OC[C@@H]4C)C[C@H]1CNC1CC1 (relative stereo) [Example 10, (3S)-10-(trans-3-cyclopropylaminomethyl-4-methyl-1-pyrrolidinyl)-9-fluoro-2,3-dihydro-3-methyl-7-oxo-7H-pyrido[1,2,3-d,e][1,4]benzoxazine-6-carboxylic acid]
0.016	63 (≈ 145 µM)	0.016	0.032	0.063	C[C@@H]1CN(c2c(F)cc3c(=O)c(C(=O)O)cn4c3c2OC[C@@H]4CF)C[C@H]1CNC1CC1 (relative stereo) [Example 16, (3R)-10-(trans-3-cyclopropylaminomethyl-4-methyl-1-pyrrolidinyl)-9-fluoro-3-fluoromethyl-2,3-dihydro-7-oxo-7H-pyrido[1,2,3-d,e][1,4]benzoxazine-6-carboxylic acid]
0.016	63 (≈ 152 µM)	0.016	0.063	0.25	C[C@@H]1CN(c2c(F)cc3c(=O)c(C(=O)O)cn4c3c2OC[C@@H]4C)C[C@H]1CNC1CC1 [Example 12, (3S)-10-[(3R,4S)-3-cyclopropylaminomethyl-4-methyl-1-pyrrolidinyl]-9-fluoro-2,3-dihydro-3-methyl-7-oxo-7H-pyrido[1,2,3-d,e][1,4]benzoxazine-6-carboxylic acid]
0.008	31 (≈ 74.6 µM)	0.008	0.031	0.125	C[C@H]1CN(c2c(F)cc3c(=O)c(C(=O)O)cn4c3c2OC[C@@H]4C)C[C@H]1CNC1CC1 (relative stereo) [Example 13, (3S)-10-(cis-3-cyclopropylaminomethyl-4-methyl-1-pyrrolidinyl)-9-fluoro-2,3-dihydro-3-methyl-7-oxo-7H-pyrido[1,2,3-d,e][1,4]benzoxazine-6-carboxylic acid]
0.016	250 (≈ 596 µM)	0.031	0.125	0.25	O=C(O)c1cn2c3c(c(N4CC[C@H](CNC5CC5)C4)c(F)cc3c1=O)OC[C@@H]2CF [Example 2, (3R)-10-[(3R)-3-cyclopropylaminomethyl-1-pyrrolidinyl]-9-fluoro-3-fluoromethyl-2,3-dihydro-7-oxo-7H-pyrido[1,2,3-d,e][1,4]benzoxazine-6-carboxylic acid]

Further lines, the molecule ahead of its results:

Structure (SMILES)	MIC [1]	MIC [2] [µg/mL]	MIC (S. aureus Smith)	MIC (S. pneumoniae Type III)	MIC (E. faecalis IID682)
C=C1COc2c(N3CC[C@@H](CNC4CC4)C3)c(F)cc3c(=O)c(C(=O)O)cn1c23 [Example 7, 10-[(3S)-3-cyclopropylaminomethyl-1-pyrrolidinyl]-9-fluoro-2,3-dihydro-3-methylene-7-oxo-7H-pyrido[1,2,3-d,e][1,4]benzoxazine-6-carboxylic acid]	≦0.008 mg/mL	63 (≈ 158 µM)	≦0.008 mg/mL	0.016	0.125
C[C@H]1COc2c(N3C[C@@H](CNC4CC4)[C@H](C(F)(F)F)C3)c(F)cc3c(=O)c(C(=O)O)cn1c23 (relative stereo) [Example 19, (3S)-10-(trans-3-cyclopropylaminomethyl-4-trifluoromethyl-1-pyrrolidinyl)-9-fluoro-2,3-dihydro-3-methyl-7-oxo-7H-pyrido[1,2,3-d,e][1,4]benzoxazine-6-carboxylic acid]	0.016	125 (≈ 266 µM)	0.016	0.125	0.25
O=C(O)c1cn2c3c(c(N4CC[C@@H](CNC5CC5)C4)c(F)cc3c1=O)OC[C@@H]2CF [Example 1, (3R)-10-[(3S)-3-cyclopropylaminomethyl-1-pyrrolidinyl]-9-fluoro-3-fluoromethyl-2,3-dihydro-7-oxo-7H-pyrido[1,2,3-d,e][1,4]benzoxazine-6-carboxylic acid]	0.016	125 (≈ 298 µM)	0.016	0.032	0.063
C[C@H]1CN(c2c(F)cc3c(=O)c(C(=O)O)cn4c3c2OC[C@@H]4C)C[C@H]1CNC1CC1 [Example 15, (3S)-10-[(3R,4R)-3-cyclopropylaminomethyl-4-methyl-1-pyrrolidinyl]-9-fluoro-2,3-dihydro-3-methyl-7-oxo-7H-pyrido[1,2,3-d,e][1,4]benzoxazine-6-carboxylic acid]	0.031	63 (≈ 152 µM)	0.031	0.063	0.125
C[C@@H]1CN(c2c(F)cc3c(=O)c(C(=O)O)cn4c3c2OC[C@@H]4CF)C[C@@H]1CNC1CC1 [Example 18, (3R)-10-[(3S,4S)-3-cyclopropylaminomethyl-4-methyl-1-pyrrolidinyl]-9-fluoro-3-fluoromethyl-2,3-dihydro-7-oxo-7H-pyrido[1,2,3-d,e][1,4]benzoxazine-6-carboxylic acid]	0.016	63 (≈ 145 µM)	0.008	0.016	0.063
C[C@@H]1CN(c2c(F)cc3c(=O)c(C(=O)O)cn4c3c2OC[C@@H]4C)C[C@@H]1CNC1CC1 [Example 14, (3S)-10-[(3S,4S)-3-cyclopropylaminomethyl-4-methyl-1-pyrrolidinyl]-9-fluoro-2,3-dihydro-3-methyl-7-oxo-7H-pyrido[1,2,3-d,e][1,4]benzoxazine-6-carboxylic acid]	0.008	31 (≈ 74.6 µM)	0.008	≦0.008 mg/mL	0.063
O=C(O)c1cn2c3c(c(N4CC[C@@H](CNC5CC5)C4)c(F)cc3c1=O)OC[C@@H]2CO [Example 6, (3S)-10-[(3S)-3-cyclopropylaminomethyl-1-pyrrolidinyl]-9-fluoro-2,3-dihydro-3-hydroxymethyl-7-oxo-7H-pyrido[1,2,3-d,e][1,4]benzoxazine-6-carboxylic acid]	0.25	4000 (≈ 9580 µM)	0.25	0.125	0.25
CC(=O)OC[C@@H]1COc2c(N3CC[C@@H](CNC4CC4)C3)c(F)cc3c(=O)c(C(=O)O)cn1c23 [Example 5, (3S)-3-acetoxymethyl-10-[(3S)-3-cyclopropylaminomethyl-1-pyrrolidinyl]-9-fluoro-2,3-dihydro-7-oxo-7H-pyrido[1,2,3-d,e][1,4]benzoxazine-6-carboxylic acid]	0.25	4000 (≈ 8710 µM)	0.25	0.125	0.25
COC[C@H]1COc2c(N3CC[C@@H](CNC4CC4)C3)c(F)cc3c(=O)c(C(=O)O)cn1c23 [Example 4, (3S)-10-[(3S)-3-cyclopropylaminomethyl-1-pyrrolidinyl]-9-fluoro-2,3-dihydro-3-methoxymethyl-1-oxo-7H-pyrido[1,2,3-d,e][1,4]benzoxazine-6-carboxylic acid]	0.031	500 (≈ 1160 µM)	0.031	0.125	0.25
